The record followed here is patent publication US7972629B2, “Product comprising a combination of milk serum apoproteins and free fatty acids” (Westgate Biological Ltd., priority 2001, dated 2011).

Holding throughout (assay type): cell-based
In experiment [1] the test system is methicillin resistant Staphylococcus aureus (MRSA). Description: Adhesion of MRSA to Buccal Epithelial Cells. To be noted: 5 mg/ml, Diagram 11. The protocol:
The basis of the technique involves exposing a standardised (known) number of yeast or bacteria to a standardised substrate (number of BEC's), allowing a 60 minute incubation period for the cells to adhere and then filtering the combined population through a 10 micron nylon mesh. The mesh will retain BEC's and those yeast or bacteria adhering to them, non-adhering yeast or bacteria will be washed through, where they may be enumerated in the filtrate and expressed as a percentage of the original population not adhering; percent adherence being the inverse of this.
Fluorescent labelling of bacteria is conducted after adhesion (on those cells in the filtrate) using fluorescent dyes such as BCECF/AM (Calbiochem Biosciences Inc., La Jolla, Calif.) and Syto 13 (Molecular Probes, Oregon, USA). Labelling methods are as described by the manufacturers of the dyes. The amount of fluorescence is measured in a fluorimeter (Fluroscan from Lab-Systems, Helsinki, Finland) and is in direct relationship to the number of bacteria present.
(§1) The following general method may be used to measure adherence of the yeast Candida albicans to BEC and the inhibition of that adherence using the formulation of milk serum apoprotein(s) as described above. The same general method is suitable for measuring inhibition of adherence of Staphylococcus aureus to BEC's and also inhibition of adherence of Streptococcus mutans, with the exception that the substrate for Streptococcus mutans, is powdered hydroxylapatite available from Merck and used as a surrogate for dental enamel.
MRSA is routinely sub-cultured on blood agar and a single colony is used to inoculate a tube of Oxoid Brain Heart Infusion Broth as described in Methods and Materials above. After 8 hours, the innoculum is used in growth and adhesion assays using the methodologies described above.
MRSA adheres to BEC's, and these are used here in a manner similar to that described for Candida albicans. […] Bovine Serum Albumin is used as a ‘protein blank’ and this material has no effect on the adhesion of MRSA to BEC's.

In experiment [2] the test system is Streptococcus mutans. Description: Adhesion of Streptococcus mutans to hydroxyapatite beads. To be noted: 0.8 mg/ml; saliva coated hydroxyapatite; Diagram 13.
From the text: as §1
In measuring inhibition of adherence of Streptococcus mutans, hydroxyapatite powder from Merck was used as a surrogate for dental enamel. The test procedure is as described in Methods and Materials above, with the following modifications: 1 ml of fresh culture, adjusted to an optical density of 0.1 at 600 nm, is added to 5 mg of saliva coated hydroxyapatite beads; allowed to adhere for 1 hour; and centrifuged at slow speed to sediment the hydroxyapatite with adhering bacteria. The number of bacteria remaining in the supernatant are that percentage of the original population not adhering and are expressed as a percentage of the original population; the inverse being […].

Experiment [3] concerns Candida albicans. Description: Adhesion of Candida albicans to Buccal Epithelial Cells (adhesion assay). The following applies: 1 mg/ml; yeast pre-treated 10 minutes; Diagram 8. An excerpt:
Measurement of adhesion, and inhibition of the same, requires selection of a suitable substrate and a method of enumerating number of organisms adhering (or not) to that substrate. Most potential pathogenic organisms adhere to mucosal epithelial cells and a convenient source of a representative mucosal epithelial cell may be easily harvested from inside the cheek. Buccal epithelial cells (BEC's) are harvested by scraping the mucosal membranes in the mouth using a wooden tongue depresser as follows.
Standard wooden tongue depressers as used in clinical examination of the mouth are wrapped, in tin foil and autoclaved. […]
The basis of the technique involves exposing a standardised (known) number of yeast or bacteria to a standardised substrate (number of BEC's), allowing a 60 minute incubation period for the cells to adhere and then filtering the combined population through a 10 micron nylon mesh. The mesh will retain BEC's and those yeast or bacteria adhering to them, non-adhering yeast or bacteria will be washed through, where they may be enumerated in the filtrate and expressed as a percentage of the original population not adhering; percent adherence being the inverse of this. […]
Both the washed BEC's and the freshly grown washed yeast cells are counted microscopically and the concentrations adjusted such that the yeast is in the order of 1×10^5 and BEC's at 1×10^3. […]

In the case of `O=C([O-])CC(O)(CC(=O)[O-])C(=O)[O-].[Na+].[Na+].[Na+]` [sodium citrate], the “inhibition of adhesion of MRSA to Buccal Epithelial Cell” value in experiment [1] is listed as “approximately 10%”; in experiment [1] (listed as Sodium citrate), “no effect on adhesion”. For the same molecule, the “inhibition of adhesion of Streptococcus mutans to hydroxyapatite beads” value in experiment [2] is ~10%.

For the molecule “Bovine Serum Albumin: protein blank in Diagrams 8, 11 and 13”, the “inhibition of adhesion of MRSA to Buccal Epithelial Cell” value in experiment [1] is “no effect”. In experiment [2], the “inhibition of adhesion of Streptococcus mutans to hydroxyapatite beads” value was ~30%. Besides, in experiment [3], the “inhibition of adhesion of Candida albicans to Buccal Epithelial Cell” value came out at 13%.
